These molecules were tested against T1, prolylendopeptidase (Rattus norvegicus, UniProt O70196) (assay: Measurement of prolylendopeptidase-inhibitory activity (rat cerebral soluble fractions as crude enzyme; succinyl-glycyl-prolylmethylcoumarinamide substrate, fluorescence)). Settings: rat cerebral soluble fraction, pH 7.0, 30° C., 15 minutes, 0.25% dimethylsulfoxide.
T1 construct: using rat cerebral soluble fractions as the crude enzyme; from tissue; host or cells: rat cerebrum, soluble fraction (crude enzyme)
T1 sequence (O70196 whole entry): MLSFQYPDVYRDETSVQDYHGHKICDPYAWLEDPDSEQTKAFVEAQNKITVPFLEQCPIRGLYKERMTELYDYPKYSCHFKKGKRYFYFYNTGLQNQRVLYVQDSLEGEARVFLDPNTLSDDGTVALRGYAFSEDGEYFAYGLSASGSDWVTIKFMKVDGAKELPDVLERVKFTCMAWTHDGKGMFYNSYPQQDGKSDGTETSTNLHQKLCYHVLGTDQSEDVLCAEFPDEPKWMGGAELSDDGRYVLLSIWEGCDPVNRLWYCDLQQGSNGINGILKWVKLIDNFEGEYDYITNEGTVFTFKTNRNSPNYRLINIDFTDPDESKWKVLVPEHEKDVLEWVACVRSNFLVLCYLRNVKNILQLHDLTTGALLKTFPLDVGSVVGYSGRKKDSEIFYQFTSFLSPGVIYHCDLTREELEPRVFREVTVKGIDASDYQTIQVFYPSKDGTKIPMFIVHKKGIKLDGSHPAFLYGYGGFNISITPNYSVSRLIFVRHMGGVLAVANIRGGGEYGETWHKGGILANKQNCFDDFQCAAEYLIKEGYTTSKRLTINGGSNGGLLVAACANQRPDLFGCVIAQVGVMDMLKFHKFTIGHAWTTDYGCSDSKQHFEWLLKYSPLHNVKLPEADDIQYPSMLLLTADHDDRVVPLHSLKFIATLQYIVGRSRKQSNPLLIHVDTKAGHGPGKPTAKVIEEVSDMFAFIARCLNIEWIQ
Type: biochemical
Protocol: The prolylendopeptidase-inhibitory activity was estimated, using rat cerebral soluble fractions as the crude enzyme, in accordance with the methods by Yoshimoto et al (Biochem. Biophys. Acta., vol. 569, p 184 (1979)) and Kato et al. (J. Neurochem., vol. 35, p 527 (1980)). That is, a mixture containing 0.1 ml of 0.25 mM succinyl-glycyl-prolylmethylcoumarinamide, 1.15 ml of 0.1M Na/K phosphate buffer solution (pH 7.0), 0.1 ml of the crude enzyme and 0.1 ml of a solution of the compound of the present invention (at the final concentration of dimethylsulfoxide of 0.25%) was incubated at 30° C. for 15 minutes. Thereafter 1.5 ml of 0.1M acetate buffer solution (pH 4.2) was added to terminate the reaction. The fluorescence intensity (a) of the liberated methyl coumarinamide was measured by a fluorophotometer (Ex. 370 nm, Em. 440 nm). At the same time, the fluorescence intensity (b) of the control comprising a dimethylsulfoxide solution alone (at the final concentration of 0.25%) instead of the compound of the present invention was measured, and the prolylendopeptidase-inhibitory rate was calculated in accordance with the following formula and the concentration at which 50% of inhibition (IC50) can be attained was estimated.
Inhibition (%)={(b-a)/b)}×100
CN(C)CCCOc1ncccc1C(=O)c1ccc(Cl)cc1 [Known Compound, 3-(4-chlorobenzoyl)-2-(3-dimethylaminepropoxy)pyridine, reference compound] was tested, and the IC50 was 1800 µM. CN(C)CCCCCCSc1ncccc1C(=O)c1cccs1 [Example 5, 2-(6-dimethylaminohexylthio)-3-(2-thenoyl)pyridine] was tested, and the IC50 was 0.0095 µM. CN(C)CCCOc1ccc(Oc2ncccc2C(=O)c2cccs2)cc1 [Example 4, 2-[4-(3-dimethylaminopropoxy)phenoxy]-3-(2-thenoyl)pyridine] was tested, and the IC50 was 0.06 µM. With CN(C)CCCCCCOc1ccc(Oc2ncccc2C(=O)c2cccs2)cc1 [Example 2, 2-[4-(6-dimethylaminohexyloxy)phenoxy]-3-(2-thenoyl)pyridine] the IC50 was 0.03 µM. For CC(CSCCCN(C)C)Sc1ncccc1C(=O)c1cccs1 (stereo not shown) [Example 20, 2-[2 (3-Dimethylaminopropylthio)-1-methylethylthio]-3-(2-thenoyl)pyridine], the IC50 was 0.0045 µM. Work on CN(C)CCc1ccc(Oc2ncccc2C(=O)c2cccs2)cc1 [Example 1, 2-[4-(2-dimethylaminoethyl)phenoxy]-3-(2-thenoyl)pyridine] yielded an IC50 of 0.014 µM. With CN(C)CCCCCCSCCSc1ncccc1C(=O)c1cccs1 [Example 19, 2-[2-(6-Dimethylaminohexylthio)ethylthio]-3-(2-thenoyl)pyridine] the IC50 was 0.0045 µM. Molecule CN(C)CCCCCCOc1ncccc1C(=O)c1cccs1 [Example 13, 2-(6-dimethylaminohexyloxy)-3-(2-thenoyl)pyridine] has an IC50 of 0.055 µM. In the case of CC(CSCCCCCCN(C)C)Sc1ncccc1C(=O)c1cccs1 (stereo not shown) [Example 17, 2-[2-(6-Dimethylaminohexylthio)-1-methylethylthio]-3-(2-thenoyl)pyridine], the IC50 is reported as 0.0045 µM. Cc1ccc(C(=O)c2cccs2)c(SCCCCCCN(C)C)n1 [Example 18, 2-(6-Dimethylaminohexylthio)-6-methyl-3-(2-thenoyl)pyridine] showed an IC50 of 0.0095 µM. CCN(CC)CCCCCCSc1nc(C(C)C)ccc1C(=O)c1cccs1 [Example 22, 2-(6-Diethylaminohexylthio)-6-isopropyl-3-(2-thenoyl)pyridine] was tested, and the IC50 was 0.011 µM. CN(CCCCCCOc1ncccc1C(=O)c1cccs1)Cc1ccccc1 [Example 6, 2-[6-(N-benzyl-N-methylamino)hexyloxy]-3-(2-thenoyl)pyridine] gave an IC50 of 0.078 µM. CC(C)c1ccc(C(=O)c2cccs2)c(SCCCCCCN(C)C)n1 [Example 21, 2-(6-Dimethylaminohexylthio)-6-isopropyl-3-(2-thenoyl)pyridine] showed an IC50 of 0.0055 µM.

Reference: patent publication US5001137A, “Pyridine compounds and pharmaceutical use thereof” (Yoshitomi Pharmaceutical Industries, Ltd., priority 1988, dated 1991)
